Test results from patent publication US20250109140A1, “5-[5-(PIPERIDIN-4-YL)THIENO[3,2-C]PYRAZOL-2-YL]INDAZOLE DERIVATIVES AND RELATED COMPOUNDS AS MODULATORS FOR SPLICING NUCLEIC ACIDS AND FOR THE TREATMENT OF PROLIFERATIVE DISEASES” (REMIX THERAPUTICS INC., priority 2022, published 2025).
Structures can show the parent of a compound that is named as a salt. Where two headings read alike, the source gives them in different places.

Assays:
HTT mRNA = test: Splicing RT-qPCR assay, HTT canonical (CJ) and alternative (AJ) junction mRNA; type: cell-based; details: Homo sapiens; for EC50: AC50 = 50% response in AJ mRNA increase
How it was run: (§1)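 A673/K562; 11-pt 3-fold dil., top 10 uM final, ≤0.25% DMSO; 24 h, 37 °C, 5% CO2. Lysis, then RT-qPCR of CJ/AJ isoforms, ≥duplicate. ΔCt vs housekeeper (GAPDH/GUSB/PPIA), ΔΔCt vs DMSO, RQ = 2^(−ΔΔCt), expressed as % response.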

MYB mRNA = test: Splicing RT-qPCR assay, MYB canonical (CJ) and alternative (AJ) junction mRNA; type: cell-based; details: Homo sapiens; for EC50: AC50 = 50% response in AJ mRNA increase
How it was run: as §1

[1] = system: K562 (human chronic myelogenous leukemia) cells; test: Cell viability, Cell Titer Glo 2.0 assay, K562 cells; type: cell-based; details: 72 hours
How it was run: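 Luminescent Cell Titer Glo 2.0 readout after 72 h exposure (37° C, 5% CO2), medium-only wells as blank. Cells plated 500/well in IMDM with 10% FBS; test compounds diluted from DMSO series 1:100 into medium, 0.1% DMSO final.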

HiBiT-tagged HTT protein = test: HiBiT protein abundance assay, HTT (K562 HiBiT knock-in cells); type: cell-based, human; details: 24 hours treatment
How it was run: (§2)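 Luminescence from the Nano-Glo HiBiT lytic reagent measured tagged protein remaining in knock-in K562 cells after 24 h compound exposure (top dose 10 µM final, 3-fold, 10 points). Responses normalized between parental K562 and DMSO-treated lines were fit by four-parameter logistic to interpolate the 50% concentration.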

SMN2 mRNA = test: Splicing RT-qPCR gene panel, SMN2 canonical junction (CJ) mRNA; type: cell-based; details: Homo sapiens; Table 8; larger gene panel, decrease in CJ mRNA levels
How it was run: as §1

Target C mRNA = test: Splicing RT-qPCR gene panel, Target C canonical junction (CJ) mRNA; type: cell-based; details: Homo sapiens; Table 8; larger gene panel, decrease in CJ mRNA levels
How it was run: as §1

Target C = test: HiBiT protein abundance assay, Target C (K562 HiBiT knock-in cells); type: cell-based, human; details: 24 hours treatment
How it was run: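 The readout was Nano-Glo HiBiT lytic luminescence after 24 h compound exposure at 37 °C, in 10000 K562 knock-in cells/well. Compounds ran as 10-point, 3-fold series, top final […], ≤0.25% DMSO. Responses were scaled between parental K562 and DMSO-treated controls, and IC50 was interpolated at 50% from four-parameter logistic curves.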

HiBiT-tagged MYB protein = test: HiBiT protein abundance assay, MYB (K562 HiBiT knock-in cells); type: cell-based, human; details: 24 hours treatment
How it was run: as §2

[2] = Table 7, RT-qPCR, A673 or K562 cells, 24 hours treatment
[3] = Table 7, IC50 = 50% response in CJ mRNA decrease, RT-qPCR, A673 or K562 cells, 24 hours treatment, read-out: HTT CJ
[4] = Table 8, larger gene panel, decrease in CJ mRNA levels, read-out: HTT CJ IC50
[5] = Table 7, IC50 = 50% response in CJ mRNA decrease, RT-qPCR, A673 or K562 cells, 24 hours treatment, read-out: MYB CJ
[6] = Table 8, larger gene panel, decrease in CJ mRNA levels, read-out: MYB CJ IC50

SMILES	EC50 (HTT mRNA; [2])	IC50 (HTT mRNA; [3])	IC50 (HTT mRNA; [4])	EC50 (MYB mRNA; [2])	IC50 (MYB mRNA; [5])	IC50 (MYB mRNA; [6])	IC50 [1]	IC50 (HiBiT-tagged HTT protein)	IC50 (SMN2 mRNA)	IC50 (Target C mRNA)	IC50 (Target C)	IC50 (HiBiT-tagged MYB protein)
Cc1cn2nc(-n3cc4cc(C5CCNCC5)sc4n3)cc2c(C)n1 [Compound 164]	1 to 10 µM	1 to 10 µM	1 to 10 µM	1 to 10 µM	1 to 10 µM	1 to 10 µM	1 to 10 µM	1 to 10 µM	1 to 10 µM	1 to 10 µM	1 to 10 µM	1 to 10 µM
Cc1c(O)c(-c2nc3cn(C4CCNCC4)nc3s2)cc2cn(C)nc12 [Compound 1108, 2,7-dimethyl-5-(2-(piperidin-4-yl)-2H-pyrazolo[4,3-d]thiazol-5-yl)-2H-indazol-6-ol]	< 0.1 µM	< 0.1 µM	< 0.1 µM	< 0.1 µM	< 0.1 µM	< 0.1 µM	0.1 to 1 µM	1 to 10 µM	< 0.1 µM	< 0.1 µM	1 to 10 µM	< 0.1 µM
Cn1cc2cc(-n3cc4nc(C5CCNCC5)sc4n3)cc(F)c2n1 [Compound 1109]	1 to 10 µM	1 to 10 µM	1 to 10 µM	1 to 10 µM	> 10 µM	> 10 µM	> 10 µM	1 to 10 µM	1 to 10 µM	> 10 µM	1 to 10 µM	1 to 10 µM
Cn1cc2cc(-c3nc4cn(C5CCNCC5)nc4s3)c(O)cc2n1 [Compound 1110]	0.1 to 1 µM	0.1 to 1 µM	< 0.1 µM	1 to 10 µM	1 to 10 µM	0.1 to 1 µM	1 to 10 µM	0.1 to 1 µM	< 0.1 µM	0.1 to 1 µM	1 to 10 µM	1 to 10 µM
Cc1cn2cc(-n3cc4cc(C5CCNCC5)sc4n3)cc(C)c2n1 [Compound 155]	0.1 to 1 µM	0.1 to 1 µM	0.1 to 1 µM	1 to 10 µM	1 to 10 µM	1 to 10 µM	0.1 to 1 µM	< 0.1 µM	< 0.1 µM	1 to 10 µM	0.1 to 1 µM	0.1 to 1 µM
Cn1cc2cc(-c3cc4cn([C@H]5CCNC[C@H]5F)nc4s3)cc(F)c2n1 [Compound 182]	0.1 to 1 µM	< 0.1 µM	0.1 to 1 µM	1 to 10 µM	0.1 to 1 µM	1 to 10 µM	0.1 to 1 µM	< 0.1 µM	< 0.1 µM	0.1 to 1 µM	0.1 to 1 µM	0.1 to 1 µM
Cc1cn2cc(-c3cc4cn(C5CCNCC5)nc4s3)cc(C)c2n1 [Compound 216]	< 0.1 µM	< 0.1 µM	< 0.1 µM	0.1 to 1 µM	0.1 to 1 µM	0.1 to 1 µM	0.1 to 1 µM	< 0.1 µM	< 0.1 µM	0.1 to 1 µM	< 0.1 µM	0.1 to 1 µM
Cn1cc2cc(-c3cc4cn([C@@H]5CCNC5)nc4s3)cc(F)c2n1 [Compound 160, (R)-5-(7-fluoro-2-methyl-2H-indazol-5-yl)-2-(pyrrolidin-3-yl)-2H-thieno[2,3-c]pyrazole hydrochloride]	1 to 10 µM	1 to 10 µM	1 to 10 µM	1 to 10 µM	1 to 10 µM	1 to 10 µM	1 to 10 µM	1 to 10 µM	1 to 10 µM	> 10 µM	> 10 µM	1 to 10 µM
COc1c(-c2nc3cn(C4CCNCC4)nc3s2)cc2cn(C)nc2c1C [Compound 1103]	1 to 10 µM	1 to 10 µM	1 to 10 µM	1 to 10 µM	1 to 10 µM	1 to 10 µM	1 to 10 µM	1 to 10 µM	1 to 10 µM	1 to 10 µM	1 to 10 µM	1 to 10 µM
Cc1nc2c(F)cc(-n3cc4sc(C5CCNCC5)cc4n3)cc2o1 [Compound 167]	0.1 to 1 µM	0.1 to 1 µM	0.1 to 1 µM	1 to 10 µM	1 to 10 µM	1 to 10 µM	1 to 10 µM	0.1 to 1 µM	0.1 to 1 µM	1 to 10 µM	0.1 to 1 µM	0.1 to 1 µM
CN(c1cc2nn(-c3ccc(-c4cn[nH]c4)cc3O)cc2s1)[C@@H]1C[C@H]2CC[C@@H](C1)N2 [Compound 148, 2-[5-[(1R,3R,5S)-8-azabicyclo[3.2.1]octan-3-yl(methyl)amino]thieno[3,2-c]pyrazol-2-yl]-5-(1H-pyrazol-4-yl)phenol]	1 to 10 µM	1 to 10 µM	1 to 10 µM	1 to 10 µM	> 10 µM	1 to 10 µM	1 to 10 µM	1 to 10 µM	1 to 10 µM	> 10 µM	1 to 10 µM	1 to 10 µM
Cc1cn2cc(-n3cc4sc(C5CCNCC5)cc4n3)nc2c(C)n1 [Compound 181]	1 to 10 µM	1 to 10 µM	1 to 10 µM	> 10 µM	> 10 µM	> 10 µM	1 to 10 µM	1 to 10 µM	1 to 10 µM	> 10 µM	> 10 µM	1 to 10 µM
